# Assay results published in US8492376B2, “Heteroaryl-cyclohexyl-tetraazabenzo[e]azulenes” (Hoffmann-La Roche Inc., priority 2010, dated 2013).
# Target: T1, human V1a receptor (Homo sapiens, UniProt P37288)
# T1 construct: expressed in transfected cells; host or cells: HEK293 cells, transiently transfected; cell membranes
# Assay: human V1a receptor binding studies (3H-Vasopressin, SPA beads)
# Settings: membranes from HEK293 cells transiently transfected with human V1a receptor, Ki calculated from IC50 by the Cheng-Prussoff equation, read-out: pKi (hV1a) (converted)
# Summary of the method: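 Membranes from HEK293 cells transiently expressing human V1a were bound to yttrium silicate SPA beads in Tris/NaCl/KCl/CaCl2/MgCl2 buffer. 3H-vasopressin (4 nM stock) and compound in 2% DMSO incubated 1 h at room temperature. Non-specific binding was defined with cold vasopressin; IC50 was converted to Ki by Cheng-Prusoff.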
# T1 sequence (P37288 whole entry): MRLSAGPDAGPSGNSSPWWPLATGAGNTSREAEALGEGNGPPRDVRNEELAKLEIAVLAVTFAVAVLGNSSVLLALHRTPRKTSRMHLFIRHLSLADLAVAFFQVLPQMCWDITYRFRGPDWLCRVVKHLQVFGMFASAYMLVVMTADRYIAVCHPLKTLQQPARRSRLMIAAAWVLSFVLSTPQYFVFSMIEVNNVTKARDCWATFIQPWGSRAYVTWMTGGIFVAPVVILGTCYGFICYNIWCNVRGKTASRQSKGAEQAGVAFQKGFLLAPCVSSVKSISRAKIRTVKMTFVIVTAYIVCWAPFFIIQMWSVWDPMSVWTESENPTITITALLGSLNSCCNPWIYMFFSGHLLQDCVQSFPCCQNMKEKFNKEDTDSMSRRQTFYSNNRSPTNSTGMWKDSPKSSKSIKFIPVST
row,SMILES,Ki [nM]
1,"Cc1cnc(C)c([C@H]2CC[C@H](c3nnc4n3-c3ccc(Cl)cc3CN(C)C4)CC2)n1 [Example 80, trans-8-Chloro-1-[4-(3,6-dimethyl-pyrazin-2-yl)-cyclohexyl]-5-methyl-5,6-dihydro-4H-2,3,5,10b-tetraaza-benzo[e]azulene]",7.24
2,"CN1Cc2cc(Cl)ccc2-n2c(nnc2[C@H]2CC[C@H](c3cccnn3)CC2)C1 [Example 81, trans-8-Chloro-5-methyl-1-(4-pyridazin-3-yl-cyclohexyl)-5,6-dihydro-4H-2,3,5,10b-tetraaza-benzo[e]azulene]",4.68
3,"CC(C)(C)OC(=O)N1Cc2cc(Cl)ccc2-n2c(nnc2[C@H]2CC[C@H](c3ncccc3Cl)CC2)C1 [Example 82, trans-8-Chloro-1-[4-(3-chloro-pyridin-2-yl)-cyclohexyl]-4H,6H-2,3,5,10b-tetraaza-benzo[e]azulene-5-carboxylic acid tert-butyl ester]",0.501
4,"Clc1ccc2c(c1)CNCc1nnc([C@H]3CC[C@H](c4ncccc4Cl)CC3)n1-2 [Example 83, trans-8-Chloro-1-[4-(3-chloro-pyridin-2-yl)-cyclohexyl]-5,6-dihydro-4H-2,3,5,10b-tetraaza-benzo[e]azulene]",7.24
5,"CN1Cc2cc(Cl)ccc2-n2c(nnc2[C@H]2CC[C@H](c3ncccc3Cl)CC2)C1 [Example 84, trans-8-Chloro-1-[4-(3-chloro-pyridin-2-yl)-cyclohexyl]-5-methyl-5,6-dihydro-4H-2,3,5,10b-tetraaza-benzo[e]azulene]",0.501
6,"CC(C)(C)OC(=O)N1Cc2cc(Cl)ccc2-n2c(nnc2[C@H]2CC[C@H](c3ncc(F)cc3F)CC2)C1 [Example 85, trans-8-Chloro-1-[4-(3,5-difluoro-pyridin-2-yl)-cyclohexyl]-4H,6H-2,3,5,10b-tetraaza-benzo[e]azulene-5-carboxylic acid tert-butyl ester]",1.1
7,"Fc1cnc([C@H]2CC[C@H](c3nnc4n3-c3ccc(Cl)cc3CNC4)CC2)c(F)c1 [Example 86, trans-8-Chloro-1-[4-(3,5-difluoro-pyridin-2-yl)-cyclohexyl]-5,6-dihydro-4H-2,3,5,10b-tetraaza-benzo[e]azulene]",9.33
8,"CN1Cc2cc(Cl)ccc2-n2c(nnc2[C@H]2CC[C@H](c3ncc(F)cc3F)CC2)C1 [Example 87, trans-8-Chloro-1-[4-(3,5-difluoro-pyridin-2-yl)-cyclohexyl]-5-methyl-5,6-dihydro-4H-2,3,5,10b-tetraaza-benzo[e]azulene]",1.29
